In patent EP1053749A1, “PREVENTIVES AND REMEDIES FOR NEURON DIGENERATION-ASSOCIATED DISEASEAS” (priority 1998, dated 1999):

Key:
cerebellar granule cells [1] = assay: DNA fragmentation after exposure to peroxynitrite; assay type: cell-based, rat; conditions: peroxynitrite-treated cells
cerebellar granule cells [2] = assay: lipid peroxidation (TBA assay) after exposure to peroxynitrite; assay type: cell-based, rat
cerebellar granule cells [3] = assay: peroxynitrite-induced apoptosis, morphological studies, Pharmacological Test 2; assay type: cell-based, rat; conditions: for protection from apoptotic death: 100 µM, 30-min exposure to 10 µM peroxynitrite
cerebellar granule cells [4] = assay: cellular ATP content by HPLC after exposure to peroxynitrite; assay type: cell-based, rat; conditions: pretreatment; exposure to peroxynitrite for 30 min, Figure 9
cerebellar granule cells [5] = assay: cell membrane fluidity by ESR spin labeling after exposure to peroxynitrite; assay type: cell-based, rat; conditions: Figure 8
cerebellar granule cells [6] = assay: NO donor-induced apoptosis, morphological studies; assay type: cell-based, rat; conditions: 25 µmol/L; 24-hour exposure to GSNO or SNP (100-250 µmol/L)
cerebellar granule cells [7] = assay: DNA fragmentation analysis after exposure to NO donors; assay type: cell-based, rat; conditions: pre-treatment of NO-treated cells
neuronal membrane = conditions: oxidative stress-induced alteration; unpublished data, contributed to Free Radic. Biol. Med.; cited from earlier work
cerebellar granule cells [8] = assay: MTT assay (mitochondrial activity) after exposure to GSNO; assay type: cell-based, rat; conditions: Figure 3
cerebellar granule cells [9] = assay: cell viability by MTT assay after exposure to peroxynitrite; assay type: cell-based, rat; conditions: concentration not given, Figure 6
cerebellar granule cells [10] = assay: lipid peroxidation (TBA assay) after exposure to NO donors; assay type: cell-based, rat; conditions: 24-hr treatment with GSNO or SNP, Figure 4
cerebellar granule cells [11] = assay: cell viability by trypan blue exclusion after exposure to NO donors; assay type: cell-based, rat; conditions: exposure to NO donors (100 µmol/L SNP or GSNO), Figure 2
cerebellar granule cells [12] = assay: peroxynitrite-induced cell death (trypan blue exclusion and MTT assay), Pharmacological Test 1; assay type: cell-based, rat; conditions: 30-min exposure to 5-10 µmol/L peroxynitrite, assessed after 24-hr culture, Figure 5
acute toxicity (LD50) = conditions: rat, in vivo
[13] = unpublished data, contributed to Free Radic. Biol. Med.; cited from earlier work

## Cc1c(C)c2c(c(C)c1O)CCC(C)(C(=O)O)O2 (stereo not shown) [Trolox, 6-Hydroxy-2,5,7,8-tetramethylchroman-2-carboxylic acid]
Cerebellar granule cells [1]; 100 µM
  DNA fragmentation (ladder pattern): exhibited protective effects
Cerebellar granule cells [2]; 100 µM
  formation of TBARS (lipid peroxidation): markedly inhibited the formation of TBARS
Cerebellar granule cells [3]
  protection from apoptotic death: protected from death
Cerebellar granule cells [4]
  cellular ATP content: suppressed the decrease of ATP
Cerebellar granule cells [5]; 100 µM
  cell membrane fluidity (order parameter): did not show significant protective effect

## Cc1c(C)c2c(c(C)c1OP(=O)(O)OC1=C(O)[C@@H]([C@@H](O)CO)OC1=O)CCC(C)(CCCC(C)CCCC(C)CCCC(C)C)O2.O=P(O)(O)O (mixture of isomers) [EPC-K1, L-ascorbic acid 2-[3,4-dihydro-2,5,7,8-tetramethyl-2-(4,8,12-trimethyltridecyl)-2H-1-benzopyran-6-yl-hydrogen phosphate] phosphate salt]
Cerebellar granule cells [6]
  protection from apoptotic cell death: protected the cells from death
Cerebellar granule cells [7]
  DNA fragmentation (ladder pattern): prevented DNA from fragmentation
Neuronal membrane
  neuronal membrane fluidity: protects neuronal membrane fluidity from oxidative stress-induced alteration
Cerebellar granule cells [8]; 8-hr exposure to 100 µmol/L GSNO
  protection of ability of cells to reduce MTT (mitochondrial enzymes): exhibited no dear protective effects
Cerebellar granule cells [8]; after exposure to 100 µmol/L GSNO
  further dysfunction of mitochondrial enzymes (MTT): prevented mitochondrial enzymes from falling into further dysfunction
Cerebellar granule cells [9]
  cell viability (MTT assay): effectively protected the cells from death
Cerebellar granule cells [10]
  lipid peroxidation (formation of TBARS): effectively inhibited lipid peroxidation
Cerebellar granule cells [1]; 50 µM
  DNA fragmentation (ladder pattern): effectively prevented DNA from fragmentation
Cerebellar granule cells [11]
  cell viability (trypan blue exclusion): effectively protected the cells from death
Cerebellar granule cells [2]; 50 µM, Figure 7
  formation of TBARS (lipid peroxidation): markedly suppressed
Cerebellar granule cells [12]
  peroxynitrite induced cell death: effectively prevented cell death
Cerebellar granule cells [3]
  protection from apoptotic death: protected from death
Cerebellar granule cells [3]; overall comparison in Pharmacological Test 2
  protective action against ONOO^--induced apoptosis (comparison): more effective than vitamin C or Trolox
Cerebellar granule cells [4]
  cellular ATP content: suppressed the decrease of ATP
Solubility in water
  solubility in water: soluble in water
Acute toxicity (LD50); iv
  LD50: > 100 mg/kg
Acute toxicity (LD50); po
  LD50: > 5000 mg/kg
[13]
  scavenging of peroxynitrite: effective scavenger of peroxynitrite
Cerebellar granule cells [5]; 50 µM
  cell membrane fluidity (order parameter): prevented the change in cell membrane fluidity

## O=C1O[C@H]([C@@H](O)CO)C(O)=C1O [vitamin C]
Cerebellar granule cells [1]; 100 µM
  DNA fragmentation (ladder pattern): exhibited protective effects
Cerebellar granule cells [2]; 100 µM
  formation of TBARS (lipid peroxidation): markedly inhibited the formation of TBARS
Cerebellar granule cells [3]
  protection from apoptotic death: protected from death
Cerebellar granule cells [4]
  cellular ATP content: suppressed the decrease of ATP
